Test results published in article PMC9440176, “Novel benzylidene benzofuranone analogues as potential anticancer agents: design, synthesis and in vitro evaluation based on CDK2 inhibition assays” (3 Biotech, 2022).

How the values were obtained:
HCT-116 cells = assay: Apoptosis detection by propidium iodide / Annexin V-FITC; assay type: cell-based, Human; design: FACS analysis of apoptosis detection, Viable cells / FACS analysis of apoptosis detection, Early apoptotic / FACS analysis of apoptosis detection, Late apoptotic / FACS analysis of apoptosis detection, Necrotic: unit not given here
Protocol: The day before induction of apoptosis, 1 × 10^6cells per well were plated on a 6-well plate using respective media with 10% FBS and 1% PenStrep, incubated overnight at 37 °C at 5% CO2.The media was replaced with test solutions of different concentrations in the media containing 10% FBS. The treated cells were incubated for 24 h at normal culture conditions. The cells were further harvested and the well contents were completely transferred into the sterile FACS tubes. The cell contents were centrifuged at 2000 rpm for 5 min and the supernatant was discarded. After centrifugation, the cells were washed twice with cold PBS and then resuspended in 1 ml of binding buffer at a concentration of 1× 10^6 cells/ml. […] of the cell suspension (5× 10^5 cells) were then transferred into a fresh FACS tube (Vermes et al. [1995]). Further, cells were gently mixed with […] of propidium iodide and […] of Annexin V before being incubated for 20 minutes at room temperature in the dark. The cells were immediately analyzed by flow cytometer within a duration of an hour.

[1] = DPPH. free radical scavenging assay
Protocol: DPPH. assay was performed using 96-well plate by serial dilution method. The dilution of methanolic stock solution of the test compounds and standard anti-oxidants was carried out to obtain concentration in the range of 3.9–1000 µM. Quercetin and ascorbic acid were used as standards. To a 100 μL of this solution, 100 μL of 200 µM DPPH^. in methanolic solution was added. The experiment was done in triplicate and the plate was then incubated for 30 min in the dark and later the absorbance was measured at 517 nm using Elisa reader. The percentage DPPH^. Scavenging was calculated using the formula, (Control Absorbance–Test Absorbance)*100/(Control Absorbance). The anti-oxidant activity of the test compounds was expressed in terms of concentration required for 50 percentage inhibition (IC50) (Collins [2005]).

CDK2/Cyclin A = CDK2/Cyclin A (Homo sapiens, UniProt P24941); assay: CDK2/cyclin A inhibitory assay, Z'-LYTE FRET kinase assay; assay type: biochemical; conditions: concentration of 100 micro molar; 1000 ng/ml kinase, 1000 µM ATP
Text: Z’-LYTE® technology involves homogeneous assay design based on FRET and is a universal platform for both screening as well as profiling protein kinases. The assay uses a peptide substrate labeled with two different fluorophores, coumarin donor and fluorescein acceptor on each end. These two fluorophores make up a FRET pair, which allows the transfer of energy when both are present on the same molecule. The initial kinase reaction transfers the ϒ-phosphate of ATP to a tyrosine or serine/threonine residue on the substrate. In a secondary reaction, referred to as the development reaction, a site-specific protease recognizes and cleaves only non-phosphorylated peptide, while phosphorylated substrate remains uncleaved. […] Upon excitation of Coumarin at 400 nm, the FRET signal is measured as a ratio between the Coumarin donor emission at 445–460 nm and the fluorescein acceptor emission at 520–535 nm(Lebakken et al. [2007]).
Initial ten-fold and two-fold dilutions of Kinase and ATP concentrations were used to choose the optimal Kinase and ATP concentration based on the % Phosphorylation.
The assay was carried out according to the kit instructions (384 well format). Briefly, 5X kinase buffer [250 mM HEPES (pH 7.5), 50 mM MgCl2, 5 mM EGTA, 0.05% BRIJ-35] was diluted to 1X using distilled water. The phosphor peptide positive control (Z’-LYTE® Tyr 4 phospho-peptide) and the non-phosphorylated negative control (Z’-LYTE® Tyr 4 peptide) were then diluted to 1:500 with 1× kinase buffer to 2 μM. […] Working development solution was then made by diluting 12 μL of the provided stock solution with 388 μL of the provided development buffer. Aliquots (20 μL) of each peptide mixture were then added to the wells of a Corning 3914 solid white microplate in replicates of 8. The development reaction was initiated by the addition of 10 μL of working development-solution to all the wells. Further, the plates were allowed to incubate at room temperature for 60 min. Reactions were then stopped by the addition of 10 μL of stop solution (Jia et al. [2008]).
Reactions were quantitated using a Tecan Robotic Microplate Reader. Reader control, blank subtraction, ratio metric calculations and finally graph plotting were carried out using Gen5™ Data Analysis Software.
The CDK2/Cyclin A assay was carried out as per the manufacturer’s instruction using suitable controls and standard.
The inhibitory assay was carried out using the stock of 10 mM in DMSO. Samples were further serially diluted to obtain concentrations of 100 μM. The concentrations were chosen based on the IC50 values obtained in the MTT assay. A total of 23 analogues were selected for the assay based on their antiproliferative activity. Further, selected compounds were screened and tested against the target CDK2/Cyclin A, and their % phosphorylation and % inhibition were recorded.

HCT 116 cells = assay: Apoptotic DNA fragmentation study; assay type: cell-based, Human
Protocol: Cells were seeded at a concentration of 1 × 10^6 per 35 mm dish and incubated at 37 °C/5% CO2 for 24 h. The confluent cells grown after 24 h of incubation were treated with sample concentrations at 10 μg/ml, 20 μg/ml and control (without sample). After the treatment, cells were trypsinized and both the adherent as well as floating cells were collected by centrifugation at 2000 rpm for 5 min. The cell pellet was later suspended in 0.5 ml lysis buffer (pH 7.8) [Tris–HCl 10 mM, pH 8; EDTA 20 mM, pH 8.0; TritonX-100 0.2% and 4 M NaCl], vortexed vigorously and incubated at 50 °C for 5 min. To the lysate, 0.5 ml of phenol: chloroform: isoamylalcohol was added and mixed for about 2–3 min. Further, it was centrifuged at 10,000 rpm for 15 min at 4 °C.The upper aqueous layer was taken in another tube to which, twice the volume of cold 100% ethanol was added along with 3 M sodium acetate (Final concentration of sodium acetate 0.3 M). It was incubated for 5–10 min at room temperature. Further, centrifuged again at 10,000 rpm for 20 min. After removing the supernatant, the DNA pellet was washed in 70% ethanol and centrifuged at 5000 rpm for the next 10 min. The supernatant was removed, the DNA pellet was air dried and was finally dissolved in TE buffer (Tris–HCl 10 mM, pH 7.4, EDTA 1 mM, pH 8.0) and separated by 2% agarose gel electrophoresis at 100 V for 50 min.

COc1ccc(/C=C2\Oc3c(c(OC)cc(OC)c3C3=CCN(C(C)C)CC3)C2=O)cc1OC [NISOA4]
FACS analysis of apoptosis detection, Early apoptotic (HCT-116 cells; 12.5 µM): 6.36
FACS analysis of apoptosis detection, Late apoptotic (HCT-116 cells; 12.5 µM): 28.95
FACS analysis of apoptosis detection, Necrotic (HCT-116 cells; 12.5 µM): 9.61
FACS analysis of apoptosis detection, Viable cells (HCT-116 cells; 12.5 µM): 55.08
FACS analysis of apoptosis detection, Early apoptotic (HCT-116 cells; 25 µM): 0.17
FACS analysis of apoptosis detection, Late apoptotic (HCT-116 cells; 25 µM): 52.11
FACS analysis of apoptosis detection, Necrotic (HCT-116 cells; 25 µM): 24.06
FACS analysis of apoptosis detection, Viable cells (HCT-116 cells; 25 µM): 23.66
IC50 [1]: 159 ± 0.45 µM
% inhibition on CDK2/cyclin A (CDK2/Cyclin A): 42.787%
DNA fragmentation on agarose gel (HCT 116 cells; 12.5 μM): smearing
DNA fragmentation on agarose gel (HCT 116 cells; 25 μM): fragmentation in the form of DNA laddering
